Test results from ChEMBL document CHEMBL1201862, “PubChem BioAssay data set” (2004).
The source made the active and inactive calls.

How the values were obtained:
[1] = molecular target: T1, RNA-binding protein pos-1 (Caenorhabditis elegans, UniProt G5EF15); experiment: inhibitors of POS-1/mex-3 RNA binding, dose response, biochemical, fluorescence polarization (AID 1964);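 also: purified POS-1 fused to maltose binding protein made in E. coli; potency of compounds blocking POS-1 binding to fluorescent RNA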
T1 sequence (G5EF15 whole entry): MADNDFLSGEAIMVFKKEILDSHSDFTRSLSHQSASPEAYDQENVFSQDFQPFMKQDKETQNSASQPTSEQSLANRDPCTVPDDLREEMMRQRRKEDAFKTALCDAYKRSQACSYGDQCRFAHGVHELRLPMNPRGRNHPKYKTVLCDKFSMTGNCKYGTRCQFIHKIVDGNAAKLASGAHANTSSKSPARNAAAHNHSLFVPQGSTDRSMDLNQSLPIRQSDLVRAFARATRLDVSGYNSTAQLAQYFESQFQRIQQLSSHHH

[2] = molecular target: T2, Alkaline phosphatase, tissue-nonspecific isozyme (Homo sapiens, UniProt P05186); experiment: TNAP enzyme inhibition by screening hits, dose response, selectivity assay for mouse IAP inhibitor project, biochemical, human TNAP, uHTS hits (AID 488906); assay type: functional
T2 sequence (P05186 whole entry): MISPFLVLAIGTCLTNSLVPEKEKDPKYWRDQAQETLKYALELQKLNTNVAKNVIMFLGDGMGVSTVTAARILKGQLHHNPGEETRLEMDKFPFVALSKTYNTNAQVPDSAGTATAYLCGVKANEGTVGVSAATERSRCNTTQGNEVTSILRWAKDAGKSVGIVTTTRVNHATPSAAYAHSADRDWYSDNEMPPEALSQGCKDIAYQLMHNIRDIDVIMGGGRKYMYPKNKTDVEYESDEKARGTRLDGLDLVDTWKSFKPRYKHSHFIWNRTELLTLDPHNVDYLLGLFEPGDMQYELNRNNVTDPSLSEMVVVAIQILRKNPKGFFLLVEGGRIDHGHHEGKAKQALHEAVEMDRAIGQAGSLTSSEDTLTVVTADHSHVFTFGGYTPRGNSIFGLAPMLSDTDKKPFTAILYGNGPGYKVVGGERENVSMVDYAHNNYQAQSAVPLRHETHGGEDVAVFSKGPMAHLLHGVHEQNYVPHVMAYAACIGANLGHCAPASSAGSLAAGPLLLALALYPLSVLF

[3] = molecular target: Intestinal-type alkaline phosphatase (Homo sapiens, UniProt P09923); experiment: inhibition of human intestinal alkaline phosphatase – biochemical, dose response (AID 488876); assay type: functional
[4] = molecular target: Large T antigen (Simian virus 40, UniProt P03070); assay type: functional, Betapolyomavirus macacae;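 also: Confirmatory-stage PubChem screen for compounds that inhibit SV40 T antigen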
[5] = molecular target: Intestinal-type alkaline phosphatase (Mus musculus, UniProt P24822); experiment: PubChem AID 488785; assay type: functional
[6] = molecular target: T3, Zinc finger protein mex-5 (Caenorhabditis elegans, UniProt Q9XUB2); experiment: MEX-5/TCR-2 RNA interaction inhibitors, dose response, biochemical, C. elegans, fluorescence polarization (AID 1960)
T3 sequence (Q9XUB2 whole entry): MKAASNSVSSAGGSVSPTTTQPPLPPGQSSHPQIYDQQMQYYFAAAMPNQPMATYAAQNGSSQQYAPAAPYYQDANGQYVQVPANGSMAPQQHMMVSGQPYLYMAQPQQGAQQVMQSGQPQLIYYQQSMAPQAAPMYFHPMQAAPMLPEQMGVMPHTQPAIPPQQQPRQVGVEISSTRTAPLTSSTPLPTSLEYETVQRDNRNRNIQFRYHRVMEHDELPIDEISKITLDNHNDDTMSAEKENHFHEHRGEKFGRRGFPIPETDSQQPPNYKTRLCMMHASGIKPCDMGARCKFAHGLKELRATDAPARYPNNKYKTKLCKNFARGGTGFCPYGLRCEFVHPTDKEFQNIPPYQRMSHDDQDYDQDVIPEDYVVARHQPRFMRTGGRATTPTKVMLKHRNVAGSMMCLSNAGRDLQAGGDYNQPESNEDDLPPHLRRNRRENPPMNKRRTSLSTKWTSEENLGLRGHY

[7] = molecular target: Sphingosine 1-phosphate receptor 1 (Homo sapiens, UniProt P21453); experiment: Fluorescence-based counterscreen assay for S1P4 agonists: Cell-based dose response high throughput screening assay to identify agonists of the Sphingosine 1-Phosphate Receptor 1 (S1P1). [Related pubchem assays (depositor defined):AID1509, AID1523, AID1801, AID463107, AID463118, AID463119, AID463122, AID463123, AID463129, AID463225, AID504400, AID504460]; assay type: functional
[8] = molecular target: Sphingosine 1-phosphate receptor 4 (Homo sapiens, UniProt O95977); experiment: Fluorescence dose response cell-based high throughput screening assay for agonists of the Sphingosine 1-Phosphate Receptor 4 (S1P4). [Related pubchem assays: 1509 (Primary screen.), 1523 (Confirmation screen in triplicates.)]; assay type: functional
[9] = molecular target: T4, Mu-type opioid receptor (Homo sapiens, UniProt P35372); experiment: HTS Image-Based Screen for Agonists of the MOR Receptor. [Related pubchem assays (depositor defined):AID1777, AID1785, AID1786, AID2133]; assay type: functional
[10] = molecular target: T5, Delta-type opioid receptor (Homo sapiens, UniProt P41143); experiment: DOR antagonists, SAR follow-up, image-based (AID 2357); assay type: functional
[11] = molecular target: T6, Kappa-type opioid receptor (Homo sapiens, UniProt P41145); assay type: functional
[12] = molecular target: T4, Mu-type opioid receptor; experiment: MOR agonists by imaging, SAR follow-up, image-based (AID 2352); assay type: functional
[13] = molecular target: T4, Mu-type opioid receptor; experiment: MOR antagonists, SAR follow-up, image-based (AID 2420); assay type: functional;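 also: compounds added before stimulation of receptor with agonist DAMGO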
[14] = molecular target: T6, Kappa-type opioid receptor; experiment: SAR analysis of small molecule agonists of the kappa opioid receptor via a luminescent beta-arrestin assay. [Related pubchem assays (depositor defined):AID1777, AID1786, AID1966, AID2133, AID2136, AID2348, AID2352, AID2357, AID2359, AID2370, AID2420, AID2478, AID2491, AID2492, AID2493, AID2497, AID2498, AID2500, AID449737, AID488822, AID488842]; assay type: functional
[15] = molecular target: T5, Delta-type opioid receptor; experiment: HTS Image-Based Screen for Agonists of the DOR Receptor. [Related pubchem assays (depositor defined):AID1777, AID1786, AID2133]; assay type: functional
[16] = molecular target: T5, Delta-type opioid receptor; experiment: HTS Image-Based Screen for Antagonists of the DOR Receptor. [Related pubchem assays (depositor defined):AID1777, AID1785, AID1786, AID2133]; assay type: functional
[17] = molecular target: T6, Kappa-type opioid receptor; experiment: KOR agonist analogs, imaging readout, SAR follow-up, image-based (AID 2359); assay type: functional
[18] = molecular target: T6, Kappa-type opioid receptor; assay type: functional; remark: listed apart in the source
[19] = molecular target: T5, Delta-type opioid receptor; experiment: DOR agonists, SAR follow-up, image-based (AID 2370); assay type: functional
[20] = molecular target: T6, Kappa-type opioid receptor; experiment: KOR antagonists by imaging, SAR follow-up, image-based (AID 2348); assay type: functional
[21] = molecular target: T7, Coagulation factor XII (Homo sapiens, UniProt P00748); assay type: functional;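 also: activated factor XIIa alpha cleaving a fluorogenic AMC peptide substrate; inhibitor potency from loss of enzyme activity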
T7 sequence (P00748 whole entry): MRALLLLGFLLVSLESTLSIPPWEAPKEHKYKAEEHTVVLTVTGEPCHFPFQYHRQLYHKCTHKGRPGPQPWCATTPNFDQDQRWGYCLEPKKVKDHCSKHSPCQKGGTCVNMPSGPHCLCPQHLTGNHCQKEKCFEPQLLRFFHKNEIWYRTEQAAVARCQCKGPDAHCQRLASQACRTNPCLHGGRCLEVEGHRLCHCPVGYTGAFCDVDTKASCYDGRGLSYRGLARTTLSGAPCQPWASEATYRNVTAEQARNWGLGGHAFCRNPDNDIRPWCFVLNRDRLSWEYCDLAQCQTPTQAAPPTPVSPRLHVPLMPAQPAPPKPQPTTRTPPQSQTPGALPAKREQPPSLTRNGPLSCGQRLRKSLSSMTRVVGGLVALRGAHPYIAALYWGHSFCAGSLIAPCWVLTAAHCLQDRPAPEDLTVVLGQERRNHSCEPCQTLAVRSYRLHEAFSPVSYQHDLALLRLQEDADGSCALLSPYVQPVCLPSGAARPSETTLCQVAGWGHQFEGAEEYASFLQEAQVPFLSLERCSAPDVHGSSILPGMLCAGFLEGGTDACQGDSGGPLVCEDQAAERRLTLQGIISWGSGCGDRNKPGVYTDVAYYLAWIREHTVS

T4 sequence (P35372 whole entry): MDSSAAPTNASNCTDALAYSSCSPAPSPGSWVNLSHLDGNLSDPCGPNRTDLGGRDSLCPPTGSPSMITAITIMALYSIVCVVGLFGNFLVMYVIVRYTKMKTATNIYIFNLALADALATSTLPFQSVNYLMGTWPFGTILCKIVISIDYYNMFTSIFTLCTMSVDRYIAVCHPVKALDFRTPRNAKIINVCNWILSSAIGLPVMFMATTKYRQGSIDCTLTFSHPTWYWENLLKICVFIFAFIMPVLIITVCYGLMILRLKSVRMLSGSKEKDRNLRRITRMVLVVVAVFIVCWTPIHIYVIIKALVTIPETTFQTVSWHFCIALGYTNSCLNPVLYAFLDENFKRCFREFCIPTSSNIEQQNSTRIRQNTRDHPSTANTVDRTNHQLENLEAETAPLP
T5 sequence (P41143 whole entry): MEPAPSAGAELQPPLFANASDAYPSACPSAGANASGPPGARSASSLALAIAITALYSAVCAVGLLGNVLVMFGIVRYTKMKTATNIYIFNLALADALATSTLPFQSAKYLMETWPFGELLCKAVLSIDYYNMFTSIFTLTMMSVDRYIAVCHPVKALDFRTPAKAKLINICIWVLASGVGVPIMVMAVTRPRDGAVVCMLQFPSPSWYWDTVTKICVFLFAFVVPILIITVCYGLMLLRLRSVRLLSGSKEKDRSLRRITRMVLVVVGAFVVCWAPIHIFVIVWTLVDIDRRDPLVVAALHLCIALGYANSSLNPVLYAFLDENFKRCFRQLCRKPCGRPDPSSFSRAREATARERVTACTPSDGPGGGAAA
T6 sequence (P41145 whole entry): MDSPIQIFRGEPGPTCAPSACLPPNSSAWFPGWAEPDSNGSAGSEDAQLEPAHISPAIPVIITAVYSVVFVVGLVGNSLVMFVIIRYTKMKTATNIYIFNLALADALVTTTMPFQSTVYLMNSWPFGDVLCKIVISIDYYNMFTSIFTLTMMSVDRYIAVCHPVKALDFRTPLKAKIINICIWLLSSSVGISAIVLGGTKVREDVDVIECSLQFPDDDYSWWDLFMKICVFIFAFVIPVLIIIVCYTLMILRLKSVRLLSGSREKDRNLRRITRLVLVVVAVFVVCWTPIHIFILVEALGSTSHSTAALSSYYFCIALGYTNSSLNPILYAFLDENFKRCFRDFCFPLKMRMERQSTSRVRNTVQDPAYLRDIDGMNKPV
Chain of Large T antigen (P03070 whole entry): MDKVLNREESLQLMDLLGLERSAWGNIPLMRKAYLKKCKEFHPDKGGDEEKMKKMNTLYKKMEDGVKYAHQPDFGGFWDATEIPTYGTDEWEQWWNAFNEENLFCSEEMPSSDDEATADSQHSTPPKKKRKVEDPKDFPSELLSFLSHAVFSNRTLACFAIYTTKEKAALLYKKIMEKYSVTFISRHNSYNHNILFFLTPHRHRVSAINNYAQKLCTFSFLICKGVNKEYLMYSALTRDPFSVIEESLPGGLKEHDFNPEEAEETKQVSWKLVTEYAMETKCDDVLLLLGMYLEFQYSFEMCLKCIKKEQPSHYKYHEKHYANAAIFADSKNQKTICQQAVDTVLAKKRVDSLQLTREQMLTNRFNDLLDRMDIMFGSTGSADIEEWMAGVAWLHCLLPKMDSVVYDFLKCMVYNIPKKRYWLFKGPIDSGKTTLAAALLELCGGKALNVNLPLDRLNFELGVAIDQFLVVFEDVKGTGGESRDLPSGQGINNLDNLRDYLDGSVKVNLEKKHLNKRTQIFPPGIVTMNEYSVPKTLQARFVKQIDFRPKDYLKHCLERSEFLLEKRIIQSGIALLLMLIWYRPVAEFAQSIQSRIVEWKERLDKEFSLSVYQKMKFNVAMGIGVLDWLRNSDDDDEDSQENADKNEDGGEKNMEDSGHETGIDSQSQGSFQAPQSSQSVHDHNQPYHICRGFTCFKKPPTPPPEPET
Chain of Sphingosine 1-phosphate receptor 1 (P21453 whole entry): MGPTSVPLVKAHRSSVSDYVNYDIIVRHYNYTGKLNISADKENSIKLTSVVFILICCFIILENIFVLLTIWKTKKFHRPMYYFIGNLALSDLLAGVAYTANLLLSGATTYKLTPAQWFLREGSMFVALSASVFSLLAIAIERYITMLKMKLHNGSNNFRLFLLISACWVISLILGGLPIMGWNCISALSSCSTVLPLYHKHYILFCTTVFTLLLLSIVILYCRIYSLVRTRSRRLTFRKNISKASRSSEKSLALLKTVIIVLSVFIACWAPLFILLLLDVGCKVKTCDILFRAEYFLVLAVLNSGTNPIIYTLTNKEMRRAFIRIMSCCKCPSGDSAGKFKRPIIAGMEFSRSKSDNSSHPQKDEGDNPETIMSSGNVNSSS
Chain of Sphingosine 1-phosphate receptor 4 (O95977 whole entry): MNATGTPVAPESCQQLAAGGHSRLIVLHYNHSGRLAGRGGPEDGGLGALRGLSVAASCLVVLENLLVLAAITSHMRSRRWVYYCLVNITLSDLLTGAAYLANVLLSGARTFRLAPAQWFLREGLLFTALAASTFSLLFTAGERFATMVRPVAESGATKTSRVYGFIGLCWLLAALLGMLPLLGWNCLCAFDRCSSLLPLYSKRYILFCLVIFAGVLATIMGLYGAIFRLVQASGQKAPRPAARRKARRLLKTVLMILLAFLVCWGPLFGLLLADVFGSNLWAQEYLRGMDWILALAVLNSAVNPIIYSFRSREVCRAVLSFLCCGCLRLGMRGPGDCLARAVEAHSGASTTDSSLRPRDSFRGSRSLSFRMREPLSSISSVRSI
Chain of Intestinal-type alkaline phosphatase (Mus musculus, UniProt P24822) (P24822 whole entry): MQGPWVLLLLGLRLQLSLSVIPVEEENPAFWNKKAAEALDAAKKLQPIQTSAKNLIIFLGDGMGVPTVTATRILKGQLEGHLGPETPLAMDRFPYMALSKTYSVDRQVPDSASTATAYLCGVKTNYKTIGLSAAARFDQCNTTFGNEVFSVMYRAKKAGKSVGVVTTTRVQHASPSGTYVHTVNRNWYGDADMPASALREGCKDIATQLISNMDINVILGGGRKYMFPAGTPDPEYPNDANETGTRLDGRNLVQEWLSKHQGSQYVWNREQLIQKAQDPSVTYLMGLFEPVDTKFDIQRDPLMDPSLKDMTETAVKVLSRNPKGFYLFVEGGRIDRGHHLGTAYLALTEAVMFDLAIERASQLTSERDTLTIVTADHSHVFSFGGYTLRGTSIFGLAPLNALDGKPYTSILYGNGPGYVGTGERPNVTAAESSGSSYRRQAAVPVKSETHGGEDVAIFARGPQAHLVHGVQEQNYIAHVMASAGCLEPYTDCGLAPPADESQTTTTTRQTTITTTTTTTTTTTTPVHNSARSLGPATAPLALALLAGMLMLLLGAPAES
Chain of Intestinal-type alkaline phosphatase (Homo sapiens, UniProt P09923) (P09923 whole entry): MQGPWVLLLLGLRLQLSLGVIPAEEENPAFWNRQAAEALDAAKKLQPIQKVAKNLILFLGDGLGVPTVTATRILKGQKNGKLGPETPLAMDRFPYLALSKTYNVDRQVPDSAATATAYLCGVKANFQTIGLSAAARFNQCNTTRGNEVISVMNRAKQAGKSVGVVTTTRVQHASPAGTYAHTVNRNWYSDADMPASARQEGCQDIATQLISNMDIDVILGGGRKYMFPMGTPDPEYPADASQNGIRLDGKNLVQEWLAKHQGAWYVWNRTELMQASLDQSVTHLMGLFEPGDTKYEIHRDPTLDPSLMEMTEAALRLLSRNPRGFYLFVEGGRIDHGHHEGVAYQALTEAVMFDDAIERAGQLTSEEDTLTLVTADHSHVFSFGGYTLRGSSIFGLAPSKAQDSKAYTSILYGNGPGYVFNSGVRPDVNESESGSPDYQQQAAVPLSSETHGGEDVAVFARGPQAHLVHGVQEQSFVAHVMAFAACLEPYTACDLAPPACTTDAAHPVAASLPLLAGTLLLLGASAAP

With `CCOc1ccc(S(=O)(=O)Nc2cc(Sc3nnc[nH]3)c3oc(=O)sc3c2)cc1` the EC50 [1] was 65.8 µM (active), the IC50 [2] was > 100 µM (inactive) and the IC50 [3] was > 100 µM (inactive). The IC50 [4] was 20.8 µM (active), the IC50 [5] was 5.37 µM (active) and the EC50 [6] was 14.6 µM (active).

In the case of `CCNC(=O)NC(=O)C(C)OC(=O)c1c(C)nn(Cc2ccccc2)c1Cl` (stereo unspecified), the EC50 [7] is reported as > 49.8 µM (inactive) and the EC50 [8] is reported as 49.8 µM (not active).

For `CCC(C)(C(=O)NC1CCCCC1)N(Cc1ccco1)C(=O)c1ccccn1` (stereo unspecified), the EC50 [9] was > 32 µM (inactive), the IC50 [10] was > 32 µM (inactive) and the EC50 [11] was 0.251 µM. The EC50 [12] was > 32 µM (inactive), the IC50 [13] was > 32 µM (inactive) and the EC50 [14] was 0.645 µM (active). For the same compound, the EC50 [15] was > 32 µM (inactive), the IC50 [16] was > 32 µM (inactive) and the EC50 [17] was 0.168 µM (active). The EC50 [18] was under 0.5 µM, the EC50 [19] was > 32 µM (inactive) and the IC50 [20] was > 32 µM (inactive). The IC50 [21] was > 50 µM (inactive).
